Assay results as given in ChEMBL document CHEMBL1150438, “Benzimidazole ribonucleosides: Observation of an unexpected nitration when performing non-aqueous diazotizations with t-butyl nitrite” (Bioorg Med Chem Lett, 1992).

Tests used:
Human betaherpesvirus 5 [1] = assay: Compound was tested for antiviral activity against human cytomegalovirus (HCMV) plaque reduction assay; format: functional, organism-based
Human alphaherpesvirus 1 = assay: Compound was tested for antiviral activity against HSV-1; format: functional, organism-based
Human betaherpesvirus 5 [2] = assay: Compound was tested for antiviral activity against human cytomegalovirus (HCMV) yield reduction assay; format: functional
HFF = assay: Cytotoxicity against human foreskin fibroblasts (HFF) cells; format: functional, cell-based

| SMILES | IC50 (Human betaherpesvirus 5 [1]) [µM] | IC50 (Human alphaherpesvirus 1) [µM] | IC90 (Human betaherpesvirus 5 [2]) [µM] | IC50 (HFF) [µM] |
| --- | --- | --- | --- | --- |
| OC[C@H]1OC(n2c(O)nc3cc(Cl)c(Cl)cc32)[C@H](O)[C@@H]1O (some centres not stated) | > 100 | > 100 |  |  |
| OC[C@H]1OC(n2c(I)nc3cc(Cl)c(Cl)cc32)[C@H](O)[C@@H]1O (some centres not stated) |  |  | 26 | 127 |
| OC[C@H]1O[C@@H](n2cnc3cc(Cl)c(Cl)cc32)[C@H](O)[C@@H]1O [DICHLORORIBOBENZIMIDAZOLE] |  |  | 19 |  |
| Nc1nc2c(ncn2COC(CO)CO)c(=O)[nH]1 [GANCICLOVIR] |  |  | 2 | > 100 |

Second part, led by results:

| IC50 (Human betaherpesvirus 5 [1]) [µM] | IC50 (Human alphaherpesvirus 1) [µM] | SMILES | IC90 (Human betaherpesvirus 5 [2]) [µM] | IC50 (HFF) [µM] |
| --- | --- | --- | --- | --- |
| > 100 | > 100 | O=[N+]([O-])c1c(Cl)c(Cl)cc2c1nc(O)n2C1O[C@H](CO)[C@@H](O)[C@H]1O (some centres not stated) |  |  |
| > 100 | > 100 | Nc1c(Cl)c(Cl)cc2c1nc(O)n2C1O[C@H](CO)[C@@H](O)[C@H]1O (some centres not stated) |  | > 100 |
